Data published in article PMC2691833 (Nucleic Acids Research, 2009).

Target: T1, EcoR124I holoenzyme (Escherichia coli, UniProt P10486)
T1 sequence (P10486 1-1038): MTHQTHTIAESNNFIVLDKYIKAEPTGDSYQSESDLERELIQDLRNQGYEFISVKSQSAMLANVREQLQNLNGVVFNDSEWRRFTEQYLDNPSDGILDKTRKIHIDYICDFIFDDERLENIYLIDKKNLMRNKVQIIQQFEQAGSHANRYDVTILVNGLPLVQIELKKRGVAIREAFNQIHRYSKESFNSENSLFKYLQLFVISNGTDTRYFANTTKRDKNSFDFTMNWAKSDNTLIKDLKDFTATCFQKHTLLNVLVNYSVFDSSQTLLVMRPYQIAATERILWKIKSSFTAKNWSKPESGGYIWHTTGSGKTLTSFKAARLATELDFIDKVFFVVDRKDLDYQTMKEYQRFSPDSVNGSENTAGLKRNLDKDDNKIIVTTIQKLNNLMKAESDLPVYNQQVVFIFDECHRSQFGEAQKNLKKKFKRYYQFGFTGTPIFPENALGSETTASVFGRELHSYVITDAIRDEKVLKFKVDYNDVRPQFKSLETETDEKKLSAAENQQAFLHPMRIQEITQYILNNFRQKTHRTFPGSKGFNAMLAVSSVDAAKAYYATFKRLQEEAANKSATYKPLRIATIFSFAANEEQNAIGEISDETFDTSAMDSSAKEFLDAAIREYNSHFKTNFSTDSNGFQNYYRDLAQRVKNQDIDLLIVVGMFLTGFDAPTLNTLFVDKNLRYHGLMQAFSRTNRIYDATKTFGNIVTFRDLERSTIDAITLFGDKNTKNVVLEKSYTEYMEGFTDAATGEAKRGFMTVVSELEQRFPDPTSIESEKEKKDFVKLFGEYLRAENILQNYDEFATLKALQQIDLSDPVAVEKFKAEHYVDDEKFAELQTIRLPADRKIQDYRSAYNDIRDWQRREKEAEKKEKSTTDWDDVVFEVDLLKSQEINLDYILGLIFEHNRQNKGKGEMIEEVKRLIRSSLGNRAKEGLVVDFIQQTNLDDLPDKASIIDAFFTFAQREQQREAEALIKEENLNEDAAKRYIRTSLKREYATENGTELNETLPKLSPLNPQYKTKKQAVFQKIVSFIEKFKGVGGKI
T1 sequence (P10484 1-520 partner): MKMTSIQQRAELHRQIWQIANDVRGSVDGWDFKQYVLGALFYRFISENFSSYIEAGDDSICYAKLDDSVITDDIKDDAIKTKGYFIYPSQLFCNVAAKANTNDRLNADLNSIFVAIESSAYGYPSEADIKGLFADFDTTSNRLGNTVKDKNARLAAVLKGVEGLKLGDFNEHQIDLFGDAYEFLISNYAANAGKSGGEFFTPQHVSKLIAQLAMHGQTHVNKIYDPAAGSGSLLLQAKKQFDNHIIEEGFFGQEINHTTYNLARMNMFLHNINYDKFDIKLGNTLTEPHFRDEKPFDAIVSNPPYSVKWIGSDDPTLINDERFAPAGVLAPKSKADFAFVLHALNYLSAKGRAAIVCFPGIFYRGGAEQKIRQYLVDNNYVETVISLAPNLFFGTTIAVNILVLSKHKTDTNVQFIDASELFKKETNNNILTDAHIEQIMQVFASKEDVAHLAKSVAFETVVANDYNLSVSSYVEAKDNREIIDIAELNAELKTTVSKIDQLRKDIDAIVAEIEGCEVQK
T1 sequence (P10485 1-404 partner): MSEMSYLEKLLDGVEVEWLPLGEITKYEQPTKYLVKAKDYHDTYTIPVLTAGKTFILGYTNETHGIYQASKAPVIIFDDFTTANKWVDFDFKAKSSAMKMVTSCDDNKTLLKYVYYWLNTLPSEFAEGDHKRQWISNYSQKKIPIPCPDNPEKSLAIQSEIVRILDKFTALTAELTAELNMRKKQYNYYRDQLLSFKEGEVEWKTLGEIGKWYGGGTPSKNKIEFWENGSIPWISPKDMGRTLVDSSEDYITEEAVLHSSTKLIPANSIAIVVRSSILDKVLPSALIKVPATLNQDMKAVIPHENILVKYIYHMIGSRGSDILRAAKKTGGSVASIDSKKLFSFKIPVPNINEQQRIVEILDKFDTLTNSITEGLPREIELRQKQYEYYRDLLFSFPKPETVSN
Conditions: 1 mM ATP, 5 mM Mg(OAc)2, negatively supercoiled R+- or 2R+-DNA, pH 7.5, 25 °C

Structure (SMILES): Nc1ncnc2c1ncn2[C@@H]1O[C@H](COP(=O)(O)OP(=O)(O)OP(=O)(O)O)[C@@H](O)[C@H]1O [ATP]
- continuous coupled spectrophotometric ATPase assay: as total protein concentration increases, the initial rates of ATP hydrolysis increase accordingly
